Measured values: patent US20090117083A1, “IMMUNOMODULATORY ALKALOIDS” (M N L PHARMA LIMITED, priority 2004, published 2009)

How the values were obtained:
[1] = system: spleen cells from Leishmania major infected BALB/c mice; test: Th1:Th2 response in non-healing leishmaniasis model, spleen cells ex vivo; format: cell-based; settings: for IFN-γ: Table 10.1
[2] = system: α-D-glucosidase; test: Glycosidase inhibition: α-D-glucosidase, Bacillus; format: biochemical, Bacillus stearothermophilus; settings: 1 mg/ml
Method: (§1) All enzymes were purchased from Sigma, as were the appropriate p-nitrophenyl substrates. Assays were carried out in microtitre plates. Enzymes were assayed in 0.1M citric acid/0.2M di-sodium hydrogen phosphate (McIlvaine) buffers at the optimum pH for the enzyme. All assays were carried out at 20° C. For screening assays the incubation assay consisted of 10 μl of enzyme solution, 10 μl of inhibitor solution (made up in water) and 50 μl of the appropriate 5 mM p-nitrophenyl substrate (3.57 mM final conc.) made up in McIlvaine buffer at the optimum pH for the enzyme.
(§2) The reactions were stopped with 0.4M glycine (pH 10.4) during the exponential phase of the reaction, which was determined at the beginning of the assay using blanks with water, which were incubated for a range of time periods to measure the reaction rate using 5 mM substrate solution. Endpoint absorbances were read at 405 nm with a Biorad microtitre plate reader (Benchmark). Water was substituted for the inhibitors in the blanks.

[3] = biological target: T1, α-L-fucosidase (Bos taurus, UniProt Q2KIM0); test: Glycosidase inhibition: α-L-fucosidase; format: biochemical, Bovine; settings: 1 mg/ml; read-out: % inhibition, fucosidase
T1 construct: purchased Sigma
T1 sequence (Q2KIM0 23-468): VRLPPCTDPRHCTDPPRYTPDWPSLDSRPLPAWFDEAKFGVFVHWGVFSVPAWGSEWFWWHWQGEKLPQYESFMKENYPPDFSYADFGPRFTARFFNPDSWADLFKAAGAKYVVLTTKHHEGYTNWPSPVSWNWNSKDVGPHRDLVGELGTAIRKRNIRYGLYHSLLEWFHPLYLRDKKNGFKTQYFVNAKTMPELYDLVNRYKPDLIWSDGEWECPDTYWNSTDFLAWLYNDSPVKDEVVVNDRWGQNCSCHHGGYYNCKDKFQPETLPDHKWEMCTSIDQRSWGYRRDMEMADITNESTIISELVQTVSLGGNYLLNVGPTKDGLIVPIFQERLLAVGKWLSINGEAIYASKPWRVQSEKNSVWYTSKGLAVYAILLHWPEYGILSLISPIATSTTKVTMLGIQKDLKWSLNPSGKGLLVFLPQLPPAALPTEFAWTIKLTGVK
Method: as §1, §2

[4] = system: dendritic cells; settings: treatment alone
[5] = biological target: T2, α-D-mannosidase (Canavalia ensiformis, UniProt C0HJB3); test: Glycosidase inhibition: α-D-mannosidase; format: biochemical, Jack beans (Canavalia ensiformis); settings: read-out: % inhibition, mannosidase
T2 construct: purchased Sigma
T2 sequence (C0HJB3 whole entry): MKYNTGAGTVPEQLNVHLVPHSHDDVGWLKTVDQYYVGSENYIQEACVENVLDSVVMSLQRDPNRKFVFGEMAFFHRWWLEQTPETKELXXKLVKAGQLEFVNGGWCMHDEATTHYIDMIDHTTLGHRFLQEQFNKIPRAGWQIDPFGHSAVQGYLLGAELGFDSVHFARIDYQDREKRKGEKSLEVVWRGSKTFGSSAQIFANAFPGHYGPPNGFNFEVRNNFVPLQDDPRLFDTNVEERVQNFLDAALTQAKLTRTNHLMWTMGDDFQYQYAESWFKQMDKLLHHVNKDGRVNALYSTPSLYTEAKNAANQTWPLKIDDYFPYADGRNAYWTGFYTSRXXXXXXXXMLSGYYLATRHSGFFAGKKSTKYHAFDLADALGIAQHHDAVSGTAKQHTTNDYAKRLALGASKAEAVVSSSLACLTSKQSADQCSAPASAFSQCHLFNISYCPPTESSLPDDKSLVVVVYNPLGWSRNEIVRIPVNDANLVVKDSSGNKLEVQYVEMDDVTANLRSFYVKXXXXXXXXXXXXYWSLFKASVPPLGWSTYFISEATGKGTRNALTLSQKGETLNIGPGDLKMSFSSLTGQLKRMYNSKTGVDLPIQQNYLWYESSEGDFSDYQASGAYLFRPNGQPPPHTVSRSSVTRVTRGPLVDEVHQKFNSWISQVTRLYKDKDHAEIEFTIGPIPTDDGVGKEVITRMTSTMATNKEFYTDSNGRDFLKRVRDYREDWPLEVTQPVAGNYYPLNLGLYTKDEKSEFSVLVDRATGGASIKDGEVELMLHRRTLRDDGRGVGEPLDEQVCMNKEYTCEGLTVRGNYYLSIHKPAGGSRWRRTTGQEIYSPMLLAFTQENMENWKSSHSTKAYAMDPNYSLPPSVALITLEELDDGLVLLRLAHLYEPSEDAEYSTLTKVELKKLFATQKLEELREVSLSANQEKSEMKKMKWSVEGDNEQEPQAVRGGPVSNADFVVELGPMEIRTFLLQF
Method: All enzymes were purchased from Sigma, as were the appropriate p-nitrophenyl substrates. Assays were carried out in microtitre plates. Enzymes were assayed in 0.1M citric acid/0.2M di-sodium hydrogen phosphate (McIlvaine) buffers at the optimum pH for the enzyme. All assays were carried out at 20° C.
Endpoint absorbances were read at 405 nm with a Biorad microtitre plate reader (Benchmark). Water was substituted for the inhibitors in the blanks.

[6] = system: N-acetyl-β-D-glucosaminidase; test: Glycosidase inhibition: N-acetyl-β-D-glucosaminidase; format: biochemical, Bovine; settings: 1 mg/ml
Method: as §1, §2

[7] = system: Influenza vaccine-specific IgG, IgG1 and IgG2a; set-up: species or system Balb/c mice; settings: mouse, in vivo
[8] = system: Naringinase; test: Glycosidase inhibition: Naringinase; format: biochemical, Penecillium decumbens; settings: 1 mg/ml
Method: as §1, §2

[9] = system: spleen cells; test: Cytokine modulation in spleen cells (IFN-γ); format: cell-based, BALB/c mice; settings: Table 3.1
Method: BALB/c male and female mice bred and maintained at the University of Strathclyde under conventional conditions were used at varying age.
Cells suspensions were prepared by using the end of a syringe and grinding the spleen through a wire mesh. The cell suspension was then centrifuged at 1000 rpm for 5 minutes. To remove the erythrocytes, the cell pellet was resuspended in Boyle's solution (Tris 0.17M & Ammonium Chloride 0.16M) and centrifuged again for 5 minutes. The pellet was then washed in medium a further two times, then resuspended in 3 mls medium. A cell count was then carried out.
All spleen cell experiments were carried out in 96-well tissue culture plates. […] Unstimulated wells contained 100 μl of cells and 100 μl of medium. The stimulated wells contained 100 μl of cells plus 50 μl of LPS at 1 μg/ml or 50 μl anti-CD3 at 0.5 μg/ml and 50 μl of medium. The remaining wells contained 100 μl cells, 5 μl of MNLP compound and either 50 μl of anti-CD3 or medium alone.
The appropriate Mabs and standards were used according to the protocol described for IL-12 (described in Example 1, above).

[10] = system: β-D-glucosidase; test: Glycosidase inhibition: β-D-glucosidase, almond; format: biochemical, Almonds (Prunus sp.); settings: 1 mg/ml
Method: as §1, §2

[11] = biological target: T3, α-D-glucosidase (Oryza sativa subsp. japonica, UniProt Q653V7); test: Glycosidase inhibition: α-D-glucosidase, rice; format: biochemical, rice (Oryza sativa); settings: 1 mg/ml; read-out: % inhibition, gluc (rice)
T3 construct: purchased Sigma
T3 sequence (Q653V7 34-885): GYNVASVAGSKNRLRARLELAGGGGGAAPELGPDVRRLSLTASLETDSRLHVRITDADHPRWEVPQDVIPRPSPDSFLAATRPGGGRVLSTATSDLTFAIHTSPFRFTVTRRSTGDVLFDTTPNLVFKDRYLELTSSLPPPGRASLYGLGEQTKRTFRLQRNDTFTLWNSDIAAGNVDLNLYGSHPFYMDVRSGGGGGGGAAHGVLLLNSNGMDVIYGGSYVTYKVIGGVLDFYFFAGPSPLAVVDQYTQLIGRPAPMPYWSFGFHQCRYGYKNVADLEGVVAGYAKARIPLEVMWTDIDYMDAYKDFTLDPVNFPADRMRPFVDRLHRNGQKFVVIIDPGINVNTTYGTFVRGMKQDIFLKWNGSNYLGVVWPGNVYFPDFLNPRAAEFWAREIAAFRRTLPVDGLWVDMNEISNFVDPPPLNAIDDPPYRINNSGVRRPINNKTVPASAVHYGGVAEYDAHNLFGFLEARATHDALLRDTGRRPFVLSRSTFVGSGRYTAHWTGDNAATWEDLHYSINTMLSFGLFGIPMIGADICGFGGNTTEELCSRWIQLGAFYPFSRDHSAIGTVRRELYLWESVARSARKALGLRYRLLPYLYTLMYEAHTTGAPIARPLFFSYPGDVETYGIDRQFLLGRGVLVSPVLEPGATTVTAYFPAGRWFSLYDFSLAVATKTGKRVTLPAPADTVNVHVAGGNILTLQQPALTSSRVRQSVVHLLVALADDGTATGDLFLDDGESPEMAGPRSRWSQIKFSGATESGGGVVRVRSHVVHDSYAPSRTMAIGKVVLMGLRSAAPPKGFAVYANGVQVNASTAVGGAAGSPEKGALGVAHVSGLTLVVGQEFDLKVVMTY
Method: as §1, §2

[12] = system: glycosidase enzymes of Table 4.1; test: Glycosidase inhibition screening, whole enzyme panel; format: biochemical; settings: 1 mg/ml
Method: as §1, §2

OC[C@H]1[C@@H](O)[C@H](O)[C@H]2[C@@H](O)[C@@H](O)CN21 [3,7-diepi-casuarine (10), (1R,2R,3S,6S,7R,7aR)-3-(hydroxymethyl)-1,2,6,7-tetrahydroxypyrolizidine]
IFN-γ ([1]; + L. major Ag): 5.5 ng/mL
IFN-γ ([1]; treatment alone): ~0.5 ng/mL
IL-5 ([1]; Table 10.2, + αCD3): 150 pg/mL
Th2-skewed immune response profile ([1]; ex vivo): clearly reversed
% inhibition, gluc (Bacillus) [2]: −7%
inhibition at 1000 µg/mL [3]: 5%
IL-2 [4]: 0.00 units/ml
inhibition at 1000 µg/mL [5]: 8%
% inhibition, N-acetyl-β-gluc [6]: −6%
influenza-specific IgG1 response versus vaccine alone [7]: statistically significant increased
influenza-specific IgG2a responses versus vaccine alone [7]: No significant differences
influenza-specific IgGtotal response versus vaccine alone [7]: statistically significant increased
% inhibition, Naringinase [8]: 6%
IFN-γ ([9]; + αCD3): 13.50 ng/mL
IFN-γ ([9]; treatment alone): 0.22 ng/mL
% inhibition, glucosidase [10]: 5%
inhibition at 1000 µg/mL [11]: 7%
inhibition of the enzymes tested [12]: do not significantly inhibit any of the enzymes tested
